# Test system: MAPK phosphorylation in PANC-1 pancreatic cancer cell line
# Experiment: MAPK cell-based phosphorylation assay (cell-direct ELISA, EGF stimulation)
# Settings: Homo sapiens
# Method: Cell lines: Tumor-derived pancreatic cancer cell lines PANC-1 were purchased from ATCC and were maintained according to ATCC recommendation.
# Method: Cells were plated at 7500 cells/well density in 96-wells plate, starved over night, and the small molecules to be tested were added to the cells in the final concentration of 30 μM with 0.3% DMSO for 6 hours incubation at 37° C. For IC50 value determination, serial dilutions of compounds were added to cells under the same conditions. Next, cells were stimulated with 1.5 ng/ml EGF for 15 min. followed by cell fixation with 4% Formaldehyde in PBS at RT for 20 min. Phosphorylation level of MAPK was determined by Cell-direct ELISA.
# Cell-direct ELISA: For each well, cells were permeabilized with PBS-Triton 0.1%, quenched with H2O2 0.6% in PBS-Triton 0.1%, and probed with anti-phospho-MAPK antibodies (R&D Systems) followed by HRP-conjugated secondary antibody (Jackson Immunoresearch, West Grove, Pa.). Next, a solution 50 μM of the fluorescent substrate AmpliFlu Red (Sigma) was added and incubated at RT for 20 min. At the end of the incubation time, fluorescence was measured at 595 nm on a microplate reader (AF2200; Eppendorf, Inc., Hamburg, Germany).
row,SMILES,IC50
1,COCC(C)Nc1nc(-c2ccccn2)nc2sc(C)c(-c3ccccc3)c12 (stereo not shown) [drawing 1040],11 to 30 µM
2,CCc1cc(NNC(=O)c2ccc(C#N)cc2)nc(-c2ccccn2)n1 [drawing 1041],2 to 10 µM

# Same assay, conditions: Homo sapiens, * = tested at 10 μM
row,SMILES,inhibition at 10 µM
1,Nc1nc(-c2ccccn2)nc2c(-c3ccccn3)csc12,76 to 100%
2,COc1ncc(CCC(=O)Nc2nc(-c3ccccn3)nc3sccc23)cn1,76 to 100%
3,Cc1sc2c(O)nc(-c3nccn3C)nc2c1-c1cccc(OC(F)(F)F)c1,25 to 50%

# Same assay, conditions: Homo sapiens, at 30 μM
row,SMILES,inhibition at 30 µM
1,COC(=O)c1cc(NCC2NC(CC(C)C)=NO2)ccc1Cl (stereo not shown),1 to 25%
2,O=[N+]([O-])c1cc(C(F)(F)F)ccc1Sc1nc2c(c(C(F)(F)F)n1)CCCC2,1 to 25%
3,CCOC(=O)c1ccnc(N2CCC(C)CC2c2ccc(CC)o2)c1[N+](=O)[O-] (stereo not shown),25 to 50%
4,N#Cc1ccc(CC(=O)Cc2ccnc(-c3ccccn3)n2)cc1,1 to 25%
5,O=C(CCc1cnn(-c2ccccc2)c1)Nc1nnc(-c2ccccn2)[nH]1 [drawing 992],25 to 50%
6,CC(C)NC(=O)Nc1cccc(C(=O)Nc2nnc(-c3ccccn3)[nH]2)c1 [drawing 993],1 to 25%
7,COc1ccc(CCC(=O)Nc2nnc(-c3ccccn3)[nH]2)cc1F [drawing 994],51 to 75%
8,O=C(Nc1nnc(-c2ccccn2)[nH]1)c1ccc2c(c1)CCO2 [drawing 995],1 to 25%
9,O=C(Cc1c[nH]c2ccccc12)Nc1nnc(-c2ccccn2)[nH]1 [drawing 996],51 to 75%
10,O=C(Nc1nnc(-c2ccccn2)[nH]1)C1CCn2c(cnc2-c2ccccc2)C1 (stereo not shown) [drawing 997],1 to 25%
11,O=C(Nc1nnc(-c2ccccn2)[nH]1)c1ccn(-c2ccccc2)n1 [drawing 998],1 to 25%
12,O=C(Nc1nnc(-c2ccccn2)[nH]1)c1ccn(-c2cccc(F)c2)n1 [drawing 999],1 to 25%
13,COc1ccc2c(ccn2CC(=O)Nc2nnc(-c3ccccn3)[nH]2)c1 [drawing 1000],1 to 25%
14,O=C(CCc1c[nH]c2ccccc12)Nc1nnc(-c2ccccn2)[nH]1 [drawing 1001],25 to 50%
15,O=C(Nc1nnc(-c2ccccn2)[nH]1)c1ccc2ccccc2n1 [drawing 1002],1 to 25%
16,CC(C)c1nc(CC(=O)Nc2nnc(-c3ccccn3)[nH]2)cs1 [drawing 1003],1 to 25%
17,O=C(Nc1nnc(-c2ccccn2)[nH]1)c1ccc(CN2C(=O)CCC2=O)cc1 [drawing 1004],1 to 25%
18,O=C(CC1C=CCC1)Nc1nnc(-c2ccccn2)[nH]1 (stereo not shown) [drawing 1005],1 to 25%
19,COc1ccc(CC(=O)Nc2nnc(-c3ccccn3)[nH]2)cc1 [drawing 1006],1 to 25%

row,SMILES,inhibition at 30 µM
1,O=C(Cc1cccs1)Nc1nnc(-c2ccccn2)[nH]1 [drawing 1007],25 to 50%
2,O=C(Nc1nnc(-c2ccccn2)[nH]1)C1CCCC1 [drawing 1008],1 to 25%
3,O=C(Nc1nnc(-c2ccccn2)[nH]1)c1ncoc1-c1cccs1 [drawing 1009],25 to 50%
4,O=C(Cn1c(=O)oc2ccccc21)Nc1nnc(-c2ccccn2)[nH]1 [drawing 1010],1 to 25%
5,O=C(CCNC(=O)c1ccco1)Nc1nnc(-c2ccccn2)[nH]1 [drawing 1011],1 to 25%
6,Cc1ccc(CC(=O)Nc2nnc(-c3ccccn3)[nH]2)cn1 [drawing 1012],1 to 25%
7,CC(Oc1ccccc1C#N)C(=O)Nc1nnc(-c2ccccn2)[nH]1 (stereo not shown) [drawing 1013],51 to 75%
8,CC(Oc1ccc(C(=O)Nc2nnc(-c3ccccn3)[nH]2)cn1)c1ccccc1 (stereo not shown) [drawing 1014],25 to 50%
9,O=C(Nc1nnc(-c2ccccn2)[nH]1)C1CCCN(c2ncccn2)C1 (stereo not shown) [drawing 1015],1 to 25%
10,CC(OCc1ccccc1)C(=O)Nc1nnc(-c2ccccn2)[nH]1 (stereo not shown) [drawing 1016],1 to 25%
11,O=C(Nc1nnc(-c2ccccn2)[nH]1)C1CCCC(C(F)(F)F)C1 (stereo not shown) [drawing 1017],51 to 75%
12,Cc1ccc(CC(=O)Nc2nnc(-c3ccccn3)[nH]2)s1 [drawing 1018],1 to 25%
13,O=C(Nc1nnc(-c2ccccn2)[nH]1)C1CCCN(c2cnccn2)C1 (stereo not shown) [drawing 1019],1 to 25%
14,Cc1nc2nc(C(F)(F)F)nn2c(C)c1CC(=O)Nc1nnc(-c2ccccn2)[nH]1 [drawing 1020],1 to 25%
15,O=C(Nc1nnc(-c2ccccn2)[nH]1)c1cccc(N2CCCS2(=O)=O)c1 [drawing 1021],1 to 25%
16,CC(C)C(=O)Nc1nc(CC(=O)Nc2nnc(-c3ccccn3)[nH]2)cs1 [drawing 1022],1 to 25%
17,CC(C)(C)c1nc(C(=O)Nc2nnc(-c3ccccn3)[nH]2)cs1 [drawing 1023],1 to 25%
18,O=C(Nc1nnc(-c2ccccn2)[nH]1)C1CC(=O)N(Cc2cccc(C(F)(F)F)c2)C1 (stereo not shown) [drawing 1024],25 to 50%
19,O=C(Nc1nnc(-c2ccccn2)[nH]1)C1Cc2cc(Cl)ccc2O1 (stereo not shown) [drawing 1025],1 to 25%

row,SMILES,inhibition at 30 µM
1,O=C(Cc1ccc2c(c1)OCCO2)Nc1nnc(-c2ccccn2)[nH]1 [drawing 1026],1 to 25%
2,O=C(Nc1nnc(-c2ccccn2)[nH]1)C1CCN(C(=O)c2cccs2)CC1 [drawing 1027],1 to 25%
3,O=C(Nc1nnc(-c2ccccn2)[nH]1)c1ccn(-c2cccc(Cl)c2)n1 [drawing 1028],25 to 50%
4,CS(=O)(=O)Cc1ccc(C(=O)Nc2nc(-c3ccccn3)cs2)cc1 [drawing 1029],1 to 25%
5,O=C(Cn1cnc2ccccc2c1=O)Nc1nc(-c2ccccn2)cs1 [drawing 1030],1 to 25%
6,O=C(Nc1nc(-c2ccccn2)cs1)C1CC(=O)N(c2ccc3c(c2)OCCO3)C1 (stereo not shown) [drawing 1031],25 to 50%
7,O=C(Nc1nc(-c2ccccn2)cs1)c1cccnc1 [drawing 1032],1 to 25%
8,O=C(Cc1cccc(F)c1)Nc1nc(-c2ccccn2)cs1 [drawing 1033],1 to 25%
9,O=C(Nc1nc(-c2ccccn2)cs1)c1ccncc1 [drawing 1034],25 to 50%
10,O=C(Nc1nc(-c2ccccn2)cs1)c1ccc(F)cc1 [drawing 1035],1 to 25%
11,O=c1nc(-c2ccccn2)[nH]c2scc(-c3ccccc3Cl)c12 [drawing 1036],25 to 50%
12,O=c1nc(-c2ccccn2)[nH]c2sc(-c3ccccc3)cc12 [drawing 1037],25 to 50%
13,O=c1nc(-c2ccccn2)[nH]c2c1sc1ccccc12 [drawing 1038],76 to 100%
14,COCC(C)Nc1nc(-c2ccccn2)nc2sc(C)c(-c3ccccc3)c12 (stereo not shown) [drawing 1040],76 to 100%
15,CCc1cc(NNC(=O)c2ccc(C#N)cc2)nc(-c2ccccn2)n1 [drawing 1041],76 to 100%
16,CC(O)CNc1nc(-c2ccccn2)nc2scc(-c3ccccc3)c12 (stereo not shown) [drawing 1042],25 to 50%
17,Cc1sc2nc(-c3ccccn3)nc(NCCCO)c2c1-c1ccccc1 [drawing 1043],1 to 25%
18,Cc1cccc(CN(Cc2ccccn2)Cc2nccn2C)c1 [drawing 1045],25 to 50%
19,Oc1ccc(C2(c3cccc(Cl)c3)CCCC2)cc1 [drawing 1047],76 to 100%

# Test system: MIA-PACA2 pancreatic cancer cell lines
# Experiment: Cell proliferation assay (CellTiter 96 AQueous One)
# Type: cell-based
# Settings: Homo sapiens, MIA PaCa-2; at 30 μM, MIA-PACA2
row,SMILES,inhibition at 30 µM
1,CN1CCN(c2nc(-c3ccccn3)nc3scc(C(=O)NCCc4cnc(O)nc4)c23)CC1 [drawing 1775],25 to 50%
2,Oc1nc(-c2ccccn2)nc2c(-c3cc(F)cc(F)c3)csc12 [drawing 1776],76 to 100%
3,CN(C)Cc1ccc(F)c(-c2csc3c(O)nc(-c4ccccn4)nc23)c1 [drawing 1777],76 to 100%
4,Oc1nc(-c2ccccn2)nc2c(-c3ccc4c(c3)CCCO4)csc12 [drawing 1778],76 to 100%
5,CCn1nc(C)cc1-c1csc2c(O)nc(-c3ccccn3)nc12 [drawing 1779],76 to 100%
6,Oc1nc(-c2ccccn2)nc2c(-c3ccnn3-c3ccccn3)csc12 [drawing 1780],76 to 100%
7,Cc1sc2c(O)nc(-c3ccccn3)nc2c1-c1ccccc1 [drawing 1781],76 to 100%
8,Nc1nc(-c2ccccn2)nc2scc(C(=O)O)c12 [drawing 1782],1 to 25%
9,COC(=O)c1cc2nc(-c3ccccn3)nc(O)c2s1 [drawing 1783],76 to 100%
10,Oc1nc(-c2ccccn2)nc2c(-c3cnc4ccccc4c3)csc12 [drawing 1784],76 to 100%
11,Oc1nc(-c2ccccn2)nc2c(-c3ccc(Cl)c(Cl)c3)csc12 [drawing 1785],76 to 100%
12,Oc1nc(-c2ccccn2)nc2c(-c3cncc(F)c3)csc12 [drawing 1786],76 to 100%
13,Oc1nc(-c2ccccn2)nc2c(-c3cc(C(F)(F)F)ccc3F)csc12 [drawing 1787],76 to 100%
14,Oc1nc(-c2ccccn2)nc2c(-c3cncc(C(F)(F)F)c3)csc12 [drawing 1788],76 to 100%
15,Cc1cncc(-c2csc3c(O)nc(-c4ccccn4)nc23)c1 [drawing 1789],76 to 100%
16,Cc1sc2c(O)nc(-c3ccccn3)nc2c1-c1cccnc1 [drawing 1790],76 to 100%
17,COc1cnc(-c2ccccn2)nc1O [drawing 1791],76 to 100%
18,COc1cnc(C2CCCN2)nc1O (stereo not shown) [drawing 1792],51 to 75%
19,COc1nc(-c2ccccn2)nc2c(C3CCCC3)csc12 [drawing 1793],76 to 100%
20,CCC(C)c1csc2c(OC)nc(-c3ccccn3)nc12 (stereo not shown) [drawing 1794],76 to 100%
